Patent publication US11396512B2, “CDK2/4/6 inhibitors” (Pfizer Inc., priority 2016, dated 2022)

Columns and labels:
[1] = target: CDK6/Cyclin D1 (Homo sapiens (Human), UniProt Q00534); experiment: biochemical
[2] = system: HCC1806 mouse tumor xenograft; experiment: HCC1806 tumor model (mouse xenograft); format: in vivo; details: NU/NU female mice, 30 mpk PO BID, 50 mpk PO BID and 75 mpk PO BID, 14 days
Protocol: Source: HCC1806 (#CRL 2335, ATCC, Manassas, Va.)
The HCC1806 tumor cell line was cultured in RPM11640 media supplemented with 10% Fetal Bovine Serum (FBS). To establish a HCC1806 xenograft model, 5×10^6 cells per mouse were implanted subcutaneously into right hind flank NU/NU female mice. Cells were suspended in 50% Cultrex Basement Membrane Extract and 50% RPMI 1640 media serum free media prior to implantation.
Animals were randomized 7 days after cells implantation with each group consisting of 13 mice. Treatment began when tumors reached 100 mm^3 to 170 mm^3 in size on Day 7. Test compounds were prepared in 0.1% Tween, 0.5% Methyl cellulose in water and dosed PO at 30, 50, and 75 mg/kg as a suspension BID for 14 days. Mice receiving no drugs were given vehicle BID for 14 days. Tumor volumes were measured twice a week with an electric caliper, with tumor volumes calculated using Length×Width×Width/2 formula. Animal weights were recorded twice weekly.

Chain of CDK6/Cyclin D1 (Q00534 whole entry): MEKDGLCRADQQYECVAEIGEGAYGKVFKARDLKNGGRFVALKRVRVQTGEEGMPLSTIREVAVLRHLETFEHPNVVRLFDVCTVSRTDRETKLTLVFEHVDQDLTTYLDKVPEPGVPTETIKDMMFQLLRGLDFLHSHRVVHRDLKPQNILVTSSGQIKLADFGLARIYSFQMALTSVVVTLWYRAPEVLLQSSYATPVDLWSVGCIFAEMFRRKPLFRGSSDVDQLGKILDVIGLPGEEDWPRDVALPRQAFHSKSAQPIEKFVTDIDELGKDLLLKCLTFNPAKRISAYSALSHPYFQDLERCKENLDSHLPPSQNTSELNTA
Chain of CDK6/Cyclin D1 (P24385 whole entry partner): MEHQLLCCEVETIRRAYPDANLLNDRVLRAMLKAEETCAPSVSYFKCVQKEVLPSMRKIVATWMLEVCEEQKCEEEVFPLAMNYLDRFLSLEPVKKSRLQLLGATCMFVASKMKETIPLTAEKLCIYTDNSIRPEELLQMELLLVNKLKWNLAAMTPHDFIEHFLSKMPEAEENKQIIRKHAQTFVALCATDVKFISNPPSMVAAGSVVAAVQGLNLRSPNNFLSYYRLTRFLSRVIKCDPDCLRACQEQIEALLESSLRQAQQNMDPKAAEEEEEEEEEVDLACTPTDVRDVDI

Ki [1] [nM] | Compound | inhibition of tumor growth (mm^3) [2]
11.3 | C[C@]1(O)CCCC1n1c(=O)ccc2cnc(NC3CCN(S(=O)(=O)C(F)(F)F)CC3)nc21 (single isomer, unassigned) [Example 89] | 
 | C[C@@]1(O)CCC[C@H]1n1c(=O)ccc2cnc(NC3CCN(S(C)(=O)=O)CC3)nc21 [Example 2, 8-[(1R,2R)-2-hydroxy-2-methylcyclopentyl]-2-{[1-(methylsulfonyl)piperidin-4-yl]amino}pyrido[2,3-d]pyrimidin-7(8H)-one] | dose dependent inhibition of tumor growth
